What was measured:
Format in all cases: functional
[1] = Cytotoxicity against human OVCAR4 cells assessed as cell growth at 10^-7 M after 48 hrs by SRB assay; details: OVCAR-4, 48 h, read-out: Activity
[2] = tested on: MOLT-4; assay: Cytotoxicity against human MOLT4 cells after 48 hrs by SRB assay; details: MOLT-4, 48 h
[3] = tested on: T47D; assay: Cytotoxicity against human T47D cells assessed as cell growth at 10^-4 M after 48 hrs by SRB assay; details: read-out: Activity
[4] = tested on: SK-MEL-28; assay: Cytotoxicity against human SK-MEL-28 cells assessed as cell growth at 10^-7 M after 48 hrs by SRB assay; details: SK-MEL-28, 48 h, read-out: Activity
[5] = tested on: M14; assay: Cytotoxicity against human M14 cells assessed as cell growth at 10^-7 M after 48 hrs by SRB assay; details: M14, 48 h, read-out: Activity
[6] = tested on: KM12; assay: Cytotoxicity against human KM12 cells assessed as cell growth at 10^-7 M after 48 hrs by SRB assay; details: KM12, 48 h, read-out: Activity
[7] = tested on: NCI-H522; assay: Cytotoxicity against human NCI-H522 cells assessed as cell growth at 10^-7 M after 48 hrs by SRB assay; details: NCI-H522, 48 h, read-out: Activity
[8] = tested on: NCI-H322M; assay: Cytotoxicity against human NCI-H322M cells assessed as cell growth at 10^-7 M after 48 hrs by SRB assay; details: read-out: Activity
[9] = tested on: NCI-H226; assay: Cytotoxicity against human NCI-H226 cells assessed as cell growth at 10^-7 M after 48 hrs by SRB assay; details: NCI-H226, 48 h, read-out: Activity
[10] = tested on: HOP-62; assay: Cytotoxicity against human HOP62 cells assessed as cell growth at 10^-7 M after 48 hrs by SRB assay; details: HOP-62, 48 h, read-out: Activity
[11] = tested on: T47D; assay: Cytotoxicity against human T47D cells assessed as cell growth at 10^-8 M after 48 hrs by SRB assay; details: read-out: Activity
[12] = tested on: A498; assay: Cytotoxicity against human A498 cells assessed as cell growth at 10^-4 M after 48 hrs by SRB assay; details: A498, 48 h, read-out: Activity
[13] = tested on: SK-MEL-28; assay: Cytotoxicity against human SK-MEL-28 cells assessed as cell growth at 10^-4 M after 48 hrs by SRB assay; details: SK-MEL-28, 48 h, read-out: Activity
[14] = tested on: Malme-3M; assay: Cytotoxicity against human MALME-3M cells assessed as cell growth at 10^-4 M after 48 hrs by SRB assay; details: read-out: Activity
[15] = tested on: U-251; assay: Cytotoxicity against human U251 cells assessed as cell growth at 10^-4 M after 48 hrs by SRB assay; details: U-251, 48 h, read-out: Activity
[16] = tested on: SW-620; assay: Cytotoxicity against human SW620 cells assessed as cell growth at 10^-4 M after 48 hrs by SRB assay; details: SW-620, 48 h, read-out: Activity
[17] = tested on: KM12; assay: Cytotoxicity against human KM12 cells assessed as cell growth at 10^-4 M after 48 hrs by SRB assay; details: KM12, 48 h, read-out: Activity
[18] = tested on: RXF 393; assay: Cytotoxicity against human RXF393 cells assessed as cell growth at 10^-8 M after 48 hrs by SRB assay; details: RXF 393, 48 h, read-out: Activity
[19] = tested on: M14; assay: Cytotoxicity against human M14 cells assessed as cell growth at 10^-8 M after 48 hrs by SRB assay; details: M14, 48 h, read-out: Activity
[20] = tested on: HCT-116; assay: Cytotoxicity against human HCT116 cells assessed as cell growth at 10^-8 M after 48 hrs by SRB assay; details: HCT-116, 48 h, read-out: Activity
[21] = tested on: NCI-H460; assay: Cytotoxicity against human NCI-H460 cells assessed as cell growth at 10^-8 M after 48 hrs by SRB assay; details: NCI-H460, 48 h, read-out: Activity
[22] = tested on: HOP-92; assay: Cytotoxicity against human HOP92 cells assessed as cell growth at 10^-8 M after 48 hrs by SRB assay; details: HOP-92, 48 h, read-out: Activity
[23] = tested on: ACHN; assay: Cytotoxicity against human ACHN cells after 48 hrs by SRB assay
[24] = tested on: A498; assay: Cytotoxicity against human A498 cells after 48 hrs by SRB assay; details: A498, 48 h
[25] = tested on: SF-295; assay: Cytotoxicity against human SF295 cells after 48 hrs by SRB assay; details: SF-295, 48 h
[26] = tested on: HCT-15; assay: Cytotoxicity against human HCT15 cells after 48 hrs by SRB assay; details: HCT-15, 48 h
[27] = tested on: COLO 205; assay: Cytotoxicity against human COLO205 cells after 48 hrs by SRB assay; details: COLO 205, 48 h
[28] = tested on: RXF 393; assay: Cytotoxicity against human RXF393 cells assessed as cell growth at 10^-6 M after 48 hrs by SRB assay; details: RXF 393, 48 h, read-out: Activity
[29] = Cytotoxicity against human UACC257 cells assessed as cell growth at 10^-6 M after 48 hrs by SRB assay; details: UACC-257, 48 h, read-out: Activity
[30] = tested on: SNB-19; assay: Cytotoxicity against human SNB19 cells assessed as cell growth at 10^-6 M after 48 hrs by SRB assay; details: SNB-19, 48 h, read-out: Activity
[31] = tested on: SR; assay: Cytotoxicity against human SR cells assessed as cell growth at 10^-6 M after 48 hrs by SRB assay; details: read-out: Activity
[32] = tested on: MOLT-4; assay: Cytotoxicity against human MOLT4 cells assessed as cell growth at 10^-6 M after 48 hrs by SRB assay; details: MOLT-4, 48 h, read-out: Activity
[33] = tested on: MDA-MB-231; assay: Cytotoxicity against human MDA-MB-231 cells assessed as cell growth at 10^-7 M after 48 hrs by SRB assay; details: MDA-MB-231, 48 h, read-out: Activity
[34] = tested on: SN12C; assay: Cytotoxicity against human SN12C cells assessed as cell growth at 10^-7 M after 48 hrs by SRB assay; details: read-out: Activity
[35] = tested on: A498; assay: Cytotoxicity against human A498 cells assessed as cell growth at 10^-7 M after 48 hrs by SRB assay; details: A498, 48 h, read-out: Activity
[36] = tested on: OVCAR-8; assay: Cytotoxicity against human OVCAR8 cells assessed as cell growth at 10^-7 M after 48 hrs by SRB assay; details: OVCAR-8, 48 h, read-out: Activity
[37] = Cytotoxicity against human OVCAR5 cells assessed as cell growth at 10^-7 M after 48 hrs by SRB assay; details: OVCAR-5, 48 h, read-out: Activity
[38] = tested on: SNB-75; assay: Cytotoxicity against human SNB75 cells assessed as cell growth at 10^-4 M after 48 hrs by SRB assay; details: SNB-75, 48 h, read-out: Activity
[39] = tested on: SR; assay: Cytotoxicity against human SR cells assessed as growth inhibition at 10 uM after 48 hrs by SRB assay; details: read-out: GI
[40] = tested on: CCRF-CEM; assay: Cytotoxicity against human CCRF-CEM cells assessed as growth inhibition at 10 uM after 48 hrs by SRB assay; details: read-out: GI

C=CCn1c(C)nc2ccc(Nc3nc(Nc4ccc5nc(C)n(CC=C)c5c4)c4ccccc4n3)cc21
growth at 0.1 µM [1]: 95%
GI50 [2]: 1670 nM
LC50 [2]: > 100000 nM
growth at 100 µM [3]: -22%
growth at 0.1 µM [4]: 95%
growth at 0.1 µM [5]: 94%
growth at 0.1 µM [6]: 92%
growth at 0.1 µM [7]: 91%
growth at 0.1 µM [8]: 90%
growth at 0.1 µM [9]: 86%
growth at 0.1 µM [10]: 96%
growth at 0.01 µM [11]: 96%
growth at 100 µM [12]: -21%
growth at 100 µM [13]: -39%
growth at 100 µM [14]: -5%
growth at 100 µM [15]: -22%
growth at 100 µM [16]: -17%
growth at 100 µM [17]: -31%
growth at 0.01 µM [18]: 95%
growth at 0.01 µM [19]: 96%
growth at 0.01 µM [20]: 108%
growth at 0.01 µM [21]: 102%
growth at 0.01 µM [22]: 92%
GI50 [23]: 1640 nM
LC50 [23]: 5510 nM
TGI [23]: 3010 nM
GI50 [24]: 442 nM
TGI [24]: 2080 nM
GI50 [25]: 1840 nM
TGI [25]: 3530 nM
GI50 [26]: 1770 nM
TGI [26]: 3550 nM
GI50 [27]: 1430 nM
TGI [27]: 2740 nM
growth at 1 µM [28]: 99%
growth at 1 µM [29]: 84%
growth at 1 µM [30]: 85%
growth at 1 µM [31]: 72%
growth at 1 µM [32]: 73%
growth at 0.1 µM [33]: 87%
growth at 0.1 µM [34]: 94%
growth at 0.1 µM [35]: 64%
growth at 0.1 µM [36]: 102%
growth at 0.1 µM [37]: 91%

C=CCn1c(C)nc2cc(Nc3nc(Nc4ccc5nc(C)n(CC=C)c5c4)c4ccccc4n3)ccc21
growth at 0.1 µM [1]: 102%
GI50 [2]: 229 nM
LC50 [2]: > 100000 nM
TGI [2]: 629 nM
growth at 100 µM [3]: -13%
growth at 0.1 µM [4]: 106%
growth at 0.1 µM [5]: 98%
growth at 0.1 µM [6]: 98%
growth at 0.1 µM [7]: 90%
growth at 0.1 µM [8]: 91%
growth at 0.1 µM [9]: 82%
growth at 0.1 µM [10]: 99%
growth at 0.01 µM [11]: 92%
growth at 100 µM [12]: -85%
growth at 100 µM [13]: -48%
growth at 100 µM [14]: -42%
growth at 100 µM [15]: -31%
growth at 100 µM [16]: -8%
growth at 100 µM [17]: -77%
growth at 0.01 µM [18]: 101%
growth at 0.01 µM [19]: 100%
growth at 0.01 µM [20]: 106%
growth at 0.01 µM [21]: 102%
growth at 0.01 µM [22]: 85%
growth at 100 µM [38]: -61%
GI50 [23]: 610 nM
TGI [23]: 1830 nM
GI50 [24]: 1660 nM
LC50 [24]: 5500 nM
TGI [24]: 3030 nM
GI50 [25]: 1440 nM
LC50 [25]: 5240 nM
TGI [25]: 2750 nM
GI50 [26]: 352 nM
GI50 [27]: 195 nM
TGI [27]: 375 nM
growth at 1 µM [28]: 22%
growth at 1 µM [30]: 54%
growth at 1 µM [31]: -23%
growth at 1 µM [32]: -23%
growth at 0.1 µM [33]: 101%
growth at 0.1 µM [34]: 92%
growth at 0.1 µM [35]: 100%
growth at 0.1 µM [36]: 101%
growth at 0.1 µM [37]: 95%

C=CCn1c(C)nc2ccc(Nc3nc(Nc4ccc(F)cc4)nc4ccccc34)cc21
growth at 0.1 µM [1]: 95%
GI50 [2]: 1770 nM
LC50 [2]: > 100000 nM
TGI [2]: 6270 nM
growth at 100 µM [3]: -13%
growth at 0.1 µM [4]: 102%
growth at 0.1 µM [5]: 97%
growth at 0.1 µM [6]: 94%
growth at 0.1 µM [7]: 84%
growth at 0.1 µM [8]: 96%
growth at 0.1 µM [9]: 93%
growth at 0.1 µM [10]: 100%
growth at 0.01 µM [11]: 85%
growth at 100 µM [12]: -68%
growth at 100 µM [13]: -50%
growth at 100 µM [14]: -51%
growth at 100 µM [15]: -80%
growth at 100 µM [16]: -48%
growth at 100 µM [17]: -79%
growth at 0.01 µM [18]: 98%
growth at 0.01 µM [19]: 93%
growth at 0.01 µM [20]: 99%
growth at 0.01 µM [21]: 100%
growth at 0.01 µM [22]: 95%
growth at 100 µM [38]: -57%
GI50 [23]: 1990 nM
LC50 [23]: 9330 nM
TGI [23]: 4310 nM
GI50 [24]: 4360 nM
LC50 [24]: 69000 nM
TGI [24]: 24100 nM
GI50 [25]: 6080 nM
LC50 [25]: 51000 nM
TGI [25]: 20300 nM
GI50 [26]: 2840 nM
LC50 [26]: > 100000 nM
TGI [26]: 10400 nM
GI50 [27]: 1750 nM
TGI [27]: 3250 nM
inhibition of growth at 10 µM [39]: 70%
inhibition of growth at 10 µM [40]: 70%
growth at 1 µM [28]: 64%
growth at 1 µM [29]: 92%
growth at 1 µM [30]: 86%
growth at 1 µM [31]: 92%
growth at 1 µM [32]: 73%
growth at 0.1 µM [33]: 98%
growth at 0.1 µM [34]: 96%
growth at 0.1 µM [35]: 83%
growth at 0.1 µM [36]: 94%
growth at 0.1 µM [37]: 101%

C=CCn1c(C)nc2cc(Nc3nc(NCCO)nc4ccccc34)ccc21
inhibition of growth at 10 µM [39]: 30%

C=CCn1c(C)nc2ccc(Nc3nc(Sc4ccc(N)cc4)nc4ccccc34)cc21
inhibition of growth at 10 µM [40]: 30%

— ChEMBL document CHEMBL3112450, “Synthesis and in vitro antitumor evaluation of primary amine substituted quinazoline linked benzimidazole” (Bioorg Med Chem Lett, 2014)
